Assays:
Type in all cases: biochemical
Settings in all cases: experimental data or published literature, primary rat hepatocyte cultures
Influx of fatty acids = test: Observed % change in influx of fatty acids, drug-treated hepatocytes
Protocol: (§1) Liver specific cells or cell-lines are treated with known doses of drugs or toxicants. Upon treatment, the cells are harvested and cellular extracts prepared. In these extracts, the drug-induced alterations in metabolite profiles can be obtained by any technique such as biochemical assays, mass spectrometry, NMR or any other technique for obtaining metabolite profile known in the art. These are then compared with values obtained in the absence of the drug. Metabolites with significant alterations from their untreated values are identified. This generates what is referred to as altered metabolites 1.
(§2) All metabolite profiles upon drug treatment are obtained experimentally from primary rat hepatocyte cultures. The drug-induced metabolite profiles are then compared with those from untreated cells to obtain altered metabolites 1. The CMA-ES procedure described above is applied wherein, an initial population of 40 randomly generated parameter sets with fitness criteria of 10^−8 is used and the set of likely altered parameters are estimated for the following drugs. Further, a set of biochemical assays are carried out wherever possible to experimentally measure the level of parameter alteration.
(§3) For the validation of this disclosure, biochemical enzymatic assays are used. However, methods such as NMR, or mass spectrometry can also be used for metabolite data collection. […]

fof1ATPase = test: Observed % change in concentration of fof1ATPase
Protocol: as §1, §2, §3

[1] = system: Glutathione reductase (mitochondrial); test: Observed % change in glutathione reductase (mitochondrial)
Protocol: as §1, §2, §3

[2] = system: Glutathione peroxidase (mitochondrial); test: Observed % change in glutathione peroxidase (mitochondrial)
Protocol: as §1, §2, §3

[3] = system: Carnitine palmitoyl transferase; test: Observed % change in carnitine palmitoyl transferase
Protocol: as §1, §2, §3

[4] = system: Gamma glutamyl cysteine synthetase; test: Observed % change in gamma glutamyl cysteine synthetase
Protocol: as §1, §2, §3

[5] = system: Glutathione reductase (cytosolic); test: Observed % change in glutathione reductase (cytosolic)
Protocol: as §1, §2, §3

[6] = system: Glutathione peroxidase (cytosolic); test: Observed % change in glutathione peroxidase (cytosolic)
Protocol: as §1, §2, §3

k proton leak = test: Observed % change in k proton leak
Protocol: as §1, §2, §3

k Ca2+/Na+ = test: Observed % change in k Ca2+/Na+

Concentration_of_fof1ATPase, observed % change (fof1ATPase) | Glutathione reductase (mitochondrial), observed % change [1] | Glutathione peroxidase (mitochondrial), observed % change [2] | Carnitine palmitoyl transferase, observed % change [3] | Gamma glutamyl cysteine synthetase, observed % change [4] | Glutathione reductase (cytosolic), observed % change [5] | Glutathione peroxidase (cytosolic), observed % change [6] | SMILES | Influx of fatty acids, observed % change (Influx of fatty acids) | k proton leak, observed % change (k proton leak) | k Ca2+/Na+, observed % change (k Ca2+/Na+)
−1.00% | −60.00% | −44.00% | −70.00% | −53.00% | 40.00% | −22.00% | CCCC(CCC)C(=O)O [Valproic acid] | −36.00% | 400.00% | 900.00%
−22.00% | 20.00% | 21.00% | 0.00% | 0.00% | 360.00% | 7.00% | O=C(O)Cc1ccccc1Nc1c(Cl)cccc1Cl [Diclofenac] | −9.00% | 400.00% | 900.00%
